# Results published in US20220356147A1, “COMPOUNDS AND METHODS FOR POTENTIATING COLISTIN ACTIVITY” (University of Notre Dame du Lac, priority 2019, published 2022).
# Values joined by “and” are separate entries in the source; they are usually repeats but may differ in a detail not shown here. Identical values can stand only once. Like-named read-outs stand apart in the source and are kept apart here.
# What was measured:
# [1] = test system: A. baumannii 4106 (AB4106); assay: Broth microdilution, colistin potentiation; assay type: cell-based
# Protocol: (§1) Broth microdilution method for measurement of colistin potentiation: Bacteria were cultured for 4 to 6 hours in CAMHB and diluted to 1.04×10^6 CFU/mL for AB 4106 and 1.96×10^6 CFU/mL for KP B9 in fresh CAMHB. To aliquots (4 mL) was added compound from stock solutions in DMSO. One aliquot was not dosed to allow measurement of the colistin MIC in the absence of compound. A 1 mL aliquot of each sample was dosed with colistin, and from this 200 μL was dispensed into the first row of a 96-well microtiter plate in which all but the final row of subsequent wells was prefilled with 100 μL of the corresponding compound dosed bacterial suspension The final row was filled with media to act as a sterility control and blank. Row one wells were mixed 6-7 times, then, 100 μL was withdrawn and transferred to row two. Row two wells were mixed 6-7 times followed by a 100 μL transfer from row two to row three. This procedure was used to serially dilute the rest of the rows of the microtiter plate, excluding the last prefilled row, which was used to measure growth in the presence of compound alone. Plates were then sealed with GLAD
# (§2) Press'n Seal and incubated under stationary conditions at 37° C. […] MIC values were determined as the minimum concentration required to achieve 90% growth inhibition compared to growth in untreated wells.
# K. pneumoniae B9 (KPB9) = assay: Broth microdilution, colistin potentiation; assay type: cell-based; design: Colistin MIC against KPB9: unit not given here
# Protocol: as §1, §2
# AB 4106 = assay: Broth microdilution, standalone MIC of compound; assay type: cell-based, A. baumannii; conditions: standalone, no colistin, read-out: MIC of compound alone, AB 4106
# Protocol: Broth microdilution method for the determination of minimum inhibitory concentrations: Bacteria were cultured for 4 to 6 hours in CAMHB and subcultured to 1.04×10^6 CFU/mL for AB 4106 and 1.96×10^6 CFU/mL for KP B9 in fresh CAMHB. To aliquots (1 mL) was added compound from stock solutions in DMSO, such that the compound concentration equaled the highest concentration tested. Samples were then dispensed (200 μL) into the first row of a 96-well microtiter plate in which all but the final row of subsequent wells were prefilled with 100 μL of the untreated bacterial subculture. The final row was filled with media to act as a sterility control and blank. Row one wells were mixed 6-7 times, then, 100 μL was withdrawn and transferred to row two. Row two wells were mixed 6-7 times followed by a 100 μL transfer from row two to row three. This procedure was used to serially dilute the rest of the rows of the microtiter plate, excluding the last prefilled row, which was used to measure growth in the absence of compound. Plates were then sealed with GLAD Press'n Seal and incubated under stationary conditions at 37 C. […] MIC values were determined as the minimum concentration required to achieve 90% growth inhibition compared to growth in untreated wells.
# AB4106 and KPB9 = assay: Initial screen for colistin resistance suppression, statements in words for both strains; assay type: cell-based, A. baumannii and K. pneumoniae; conditions: compound at 5 μM
# Protocol: as §1, §2
# AB 3941 = assay: Colistin potentiation, colistin-resistant isolate panel; assay type: cell-based, A. baumannii
# AB 3942 = assay: as above; assay type: cell-based, A. baumannii
# AB 4112 = assay: as above; assay type: cell-based, A. baumannii
# AB 4119 = assay: as above; assay type: cell-based, A. baumannii
# AB 17978 mcr-1 = assay: as above; assay type: cell-based, A. baumannii
# [2] = compound at 5 μM, colistin alone 2048 μg/mL
# [3] = in presence of compound at 1 μM
# [4] = in presence of compound at 3 μM
# [5] = in presence of compound at 5 μM
Compound,"Colistin MIC fold reduction, AB 4106 [1, 2]","MIC (AB 4106; Acinetobacter baumannii, 16 h)","Colistin potentiation activity in words, compared to IMD-0354 (AB4106 and KPB9)","Colistin MIC fold reduction, AB 4106 ([1]; compound at 1 μM)","Colistin MIC fold reduction, AB 4106 ([1]; compound at 3 μM)",further results
Cc1ccc(NC(=O)c2cc(Cl)ccc2O)cc1Br [Compound 32],32 fold,> 200 µM,–,–,–,Colistin MIC against KPB9 (K. pneumoniae B9 (KPB9); compound at 5 μM): 8
COc1ccc(Cl)cc1C(=O)Nc1cc(C(F)(F)F)cc(C(F)(F)F)c1 [Compound 2],≤ 16 fold,> 200 µM,abrogated activity,–,–,–
O=C(Nc1cc(C(F)(F)F)cc(C(F)(F)F)c1)c1cccc(Cl)c1O [Compound 5],512 fold,100 µM,essentially equipotent activity to IMD-0354,≤ 16 fold,256 fold,–
Cc1ccc(NC(=O)c2cc(Cl)ccc2O)cc1C [Compound 31],32 fold,> 200 µM,–,–,–,"Colistin MIC against AB 4106 ([1]; compound at 5 μM, text of b125): 64; Colistin MIC against KPB9 (K. pneumoniae B9 (KPB9); compound at 5 μM): 16"
O=C(Nc1cc(C(F)(F)F)ccc1F)c1cc(Cl)ccc1O [Compound 28],1024 fold,–,activity equivalent to IMD-0354,256 fold,1024 fold,"Colistin MIC against AB 4106 [1, 3]: 8 µg/mL; Colistin MIC against AB 4106 [1, 4]: 2 µg/mL; Colistin MIC against AB 4106 [1, 5]: 2 µg/mL; MIC (AB 4106): >200 µM; Colistin MIC against AB 3941 (AB 3941; compound at 5 μM): 2 µg/mL; Colistin MIC against AB 3942 (AB 3942; compound at 5 μM): 2 µg/mL; Colistin MIC against AB 4112 (AB 4112; compound at 5 μM): 2 µg/mL; Colistin MIC against AB 4119 (AB 4119; compound at 5 μM): 1 µg/mL; Colistin MIC against AB 17978 mcr-1 (AB 17978 mcr-1; compound at 5 μM): 0.25 µg/mL"
O=C(Nc1cc(C(F)(F)F)cc(C(F)(F)F)c1)c1cccc(Cl)c1 [Compound 1],≤ 16 fold,> 200 µM,abrogated activity,–,–,–
"Nc1cc(NC(=O)c2cc(Cl)ccc2O)ccc1F [Compound 36, N-(3-amino-4-fluorophenyl)-5-chloro-2-hydroxybenzamide]",≤ 16 fold,> 200 µM,Neither compound displayed significant activity,–,–,–
colistin [reference compound],–,–,–,–,–,"MIC of colistin alone, AB 3941 (AB 3941; absence of adjuvant): 1024 µg/mL; MIC of colistin alone, AB 3942 (AB 3942; absence of adjuvant): > 2048 µg/mL; MIC of colistin alone, AB 4112 (AB 4112; absence of adjuvant): 2048 µg/mL; MIC of colistin alone, AB 4119 (AB 4119; absence of adjuvant): 1024 µg/mL; MIC of colistin alone, AB 17978 mcr-1 (AB 17978 mcr-1; absence of adjuvant): 64 µg/mL"
"O=C(Nc1cc(C(F)(F)F)cc(C(F)(F)F)c1)c1ccc(O)c(Cl)c1 [Compound 4, N-(3,5-bis(trifluoromethyl)phenyl)-3-chloro-4-hydroxybenzamide]",≤ 16 fold,> 200 µM,abolished activity,–,–,–
O=C(Nc1cc(C(F)(F)F)cc(C(F)(F)F)c1Br)c1cc(Cl)ccc1O [Compound 24],4096 fold,–,–,512 fold,2048 fold,"Colistin MIC against AB 4106 [1, 3]: 4 µg/mL; Colistin MIC against AB 4106 [1, 4]: 1 µg/mL; Colistin MIC against AB 4106 [1, 5]: 1 µg/mL and 0.5 µg/mL; MIC (AB 4106): >200 µM; Colistin MIC against AB 3941 (AB 3941; compound at 5 μM): 1 µg/mL; Colistin MIC against AB 3942 (AB 3942; compound at 5 μM): 0.5 µg/mL; Colistin MIC against AB 4112 (AB 4112; compound at 5 μM): 0.25 µg/mL; Colistin MIC against AB 4119 (AB 4119; compound at 5 μM): 0.125 µg/mL; Colistin MIC against AB 17978 mcr-1 (AB 17978 mcr-1; compound at 5 μM): 0.25 µg/mL"
O=C(Nc1cc(C(F)(F)F)cc(C(F)(F)F)c1)c1cc(-c2ccccc2)ccc1O [Compound 13],512 fold,–,–,32 fold,256 fold,"Colistin MIC against AB 4106 [1, 3]: 64 µg/mL; Colistin MIC against AB 4106 [1, 4]: 8 µg/mL; Colistin MIC against AB 4106 [1, 5]: 4 µg/mL; MIC (AB 4106): >200 µM; Colistin MIC against AB 3941 (AB 3941; compound at 5 μM): 16 µg/mL; Colistin MIC against AB 3942 (AB 3942; compound at 5 μM): 32 µg/mL; Colistin MIC against AB 4112 (AB 4112; compound at 5 μM): 8 µg/mL; Colistin MIC against AB 4119 (AB 4119; compound at 5 μM): 2 µg/mL; Colistin MIC against AB 17978 mcr-1 (AB 17978 mcr-1; compound at 5 μM): 4 µg/mL"
O=C(Nc1cc(C(F)(F)F)cc(C(F)(F)F)c1)c1ccccc1O [Compound 6],512 fold,> 200 µM,essentially equipotent activity to IMD-0354,–,512 fold,–
O=C(Nc1cc(Cl)cc(Cl)c1)c1cc(I)ccc1O [Compound 51],2048 fold,> 200 µM,–,512 fold,2048 fold,"ability to break colistin resistance, KPB9 (K. pneumoniae B9 (KPB9); compound at 500 nM): retained the ability to break colistin resistance; Colistin MIC fold reduction, AB 3941 (AB 3941; compound at 5 μM): (1024) fold; Colistin MIC fold reduction, AB 3942 (AB 3942; compound at 5 μM): (≥4096) fold; Colistin MIC fold reduction, AB 4112 (AB 4112; compound at 5 μM): (2048) fold; Colistin MIC fold reduction, AB 4119 (AB 4119; compound at 5 μM): (2048) fold; Colistin MIC fold reduction, AB 17978 mcr-1 (AB 17978 mcr-1; compound at 5 μM): (512) fold"
O=C(Nc1cc(C(F)(F)F)ccc1C(F)(F)F)c1cc(Cl)ccc1O [Compound 17],1024 fold,> 200 µM,retained activity against KPB9 and AB4106 equivalent to IMD-0354,128 fold,512 fold,–
COc1cc(NC(=O)c2cc(Cl)ccc2O)cc(OC)c1 [Compound 19],≤ 16 fold,> 200 µM,bereft of activity,–,–,–
O=C(Nc1ccccc1Cl)c1cc(Cl)ccc1O [Compound 39],256 fold,> 200 µM,less active,–,–,–
O=C(Nc1ccc(F)cc1C(F)(F)F)c1cc(Cl)ccc1O [Compound 27],256 fold,> 200 µM,–,–,–,Colistin MIC against KPB9 (K. pneumoniae B9 (KPB9); compound at 5 μM): 1
O=C(Nc1cc(C(F)(F)F)cc(C(F)(F)F)c1)c1cc(Br)ccc1O [Compound 9],1024 fold,> 100 µM,essentially equipotent activity to IMD-0354,128 fold,1024 fold,–
O=C(Nc1cc(C(F)(F)F)cc(C(F)(F)F)c1)c1cc(I)ccc1O [Compound 10],4096 fold,> 200 µM,essentially equipotent activity to IMD-0354,128 fold,1024 fold,"Colistin potentiation activity in words, AB4106 ([1]; compound at 5 μM): superior activity to IMD-0354; Colistin potentiation activity in words, KPB9 (K. pneumoniae B9 (KPB9); compound at 5 μM): equipotent activity"
"O=C(Nc1cc(C(F)(F)F)ccc1C(F)(F)F)c1cc(Cl)cc(Cl)c1O [Compound 61, N-(2,5-bis(trifluoromethyl)phenyl)-3,5-dichloro-2-hydroxybenzamide]",≤ 16 fold,> 200 µM,returned equipotent activity,–,–,–
O=C(Nc1cc(C(F)(F)F)cc(C(F)(F)F)c1)c1cc(Cl)cc(Cl)c1O [Compound 14],512 fold,100 µM,four-fold less active than 15,32 fold,512 fold,–
COc1ccc(NC(=O)c2cc(Cl)ccc2O)cc1 [Compound 38],≤ 16 fold,> 200 µM,abolished activity,–,–,–
